Data set [1] has as its system APOE*3Leiden.CETP mice. The data set is described as follows: Plasma total cholesterol, triglycerides and lipoprotein profiles. The data set is classed as in vivo, mouse. Conditions: for TC reductions in lipoprotein profile (FPLC): lipoprotein separation by FPLC, FIG. 1C/1D; for average plasma TC, change compared to control: alone or + atorvastatin 3.6 mg/kg/d in diet. The text has this: Ninety female APOE*3Leiden.CETP transgenic mice (9 to 13 weeks of age), expressing human CETP under control of its natural flanking regions, were used. During the study, mice were housed under standard conditions with a 12-hour light-dark cycle and had free access to food and water. Animal experiments were approved by the Institutional Animal Care and Use Committee of The Netherlands Organization for Applied Research.
Plasma was isolated from blood collected in ethylenediaminetetraacetic acid (EDTA)-coated cups via tail vein bleeding after a 4-hour fast every 2 to 4 weeks. Plasma TC and TG were determined using enzymatic kits according to the manufacturer's protocols (cat. no. 1458216 and cat. no. 1488872, respectively; Roche/Hitachi) and average plasma TC and TG levels were calculated. Lipoprotein profiles for TC were measured after lipoprotein separation by fast protein liquid chromatography (FPLC) after 4, 12, and 18 weeks of treatment. MAb316P levels were measured by a human Fc enzyme-linked immunosorbent assay.

Data set [2] has as its system APOE*3Leiden.CETP mice. Kind of data set: Liver weight and hepatic lipid analysis. The note with it: atorvastatin 3.6 mg/kg/d alone; 18 weeks.
Source text: Mice received a semi-synthetic cholesterol-rich diet, containing 15% (w/w) cacao butter and 0.15% cholesterol (Western-type diet [WTD]; Hope Farms, Woerden, The Netherlands) for a run-in period of 3 weeks to increase plasma total cholesterol (TC) levels up to ˜15 mmol/L. Body weight (BW) and food intake were monitored regularly during the study. […] At the end of the treatment period, all animals were sacrificed by CO2 inhalation. Livers and hearts were isolated to assess hepatic LDLR protein levels, lipid content, atherosclerosis development, and plaque composition.
Liver tissue samples were homogenized in phosphate-buffered saline, and the protein content was measured. Lipids were extracted, separated by high-performance thin-layer chromatography on silica gel plates, and analyzed with TINA2.09 software (Raytest Isotopen Messgerate Straubenhardt, Germany), as previously described by Post et al. (Hepatology. 1999; 30:491-500).
Data set [3] has as its system APOE*3Leiden.CETP mice. Kind of data set: Flow cytometric analysis of white blood cells (PBMC). The data set is classed as in vivo, mouse. The text has this: After 8 weeks of treatment, peripheral blood mononuclear cells (PBMCs) were isolated from fresh blood samples and were sorted into GR-1+ (neutrophils/granulocytes), GR-1− (lymphocytes/monocytes), CD3+ (T-cells), CD19+ (B-cells) and CD11b+/Ly6C^low and CD11b+/Ly6C^hi (monocytes) cells using flow cytometric (FACS) analysis. The following conjugated monoclonal antibodies were used from Becton Dickinson: GR-1 FITC, CD3 PerCpCy5-5, CD19 V450, CD11b APC and Ly6C PE-Cy7.
A general note: Flow cytometry measures light scatter and fluorescence of single cells or particles in a stream.

For data set [4], the system named is APOE*3Leiden.CETP mice. Kind of data set: Histological assessment of atherosclerosis in the aortic root. The class given is in vivo, mouse. Conditions: 18 weeks; for lesion severity (severe type IV-V lesions) compared with the control / lesion-free sections / undiseased segments compared with the control: dose of mAb316P not specified. The text has this:
(§1) Hearts were isolated, fixed in formalin, and embedded in paraffin. Cross-sections (5 μm each) of the entire aortic root area were stained with hematoxylin-phloxin-saffron. For each mouse, four sections at intervals of 50 μm were used for quantitative and qualitative assessment of the atherosclerotic lesions. To determine atherosclerotic lesion size and severity, the lesions were classified into five categories according to the American Heart Association classification: I) early fatty streak, II) regular fatty streak, III) mild plaque, IV) moderate plaque, and V) severe plaque. Total lesion area and number of lesions per cross-section, as well as the percentage undiseased segments, were calculated. To assess lesion severity as a percentage of all lesions, type I-Ill lesions were classified as mild lesions, and type IV-V lesions were classified as severe lesions. To determine the total plaque load in the thoracic aorta, perfusion-fixed aortas (from the aortic origin to the diaphragm) were cleaned of extravascular fat, opened longitudinally, pinned en face, and stained for lipids with oil-red O as described previously by Verschuren et al. (Arterioscler Thromb Vasc Biol. 2005; 25:161-167). Data were normalized for analyzed surface area and expressed as percentage of the stained area. Photos/images were taken with the Olympus BX51 microscope and lesion areas were measured using Cell D imaging software (Olympus Soft Imaging Solutions).

For data set [5], the system named is APOE*3Leiden.CETP mice. The data set is described as follows: Total plaque load in the aortic arch (oil-red O). The class given is in vivo, mouse. The note with it: mAb316P 10 mg/kg, alone or + atorvastatin 3.6 mg/kg/d; 18 weeks.
Source text: as §1, with “To determine the total plaque load in the thoracic aorta, perfusion-fixed aortas (from the aortic origin to the diaphragm) were cleaned of extravascular fat, opened longitudinally, pinned en face, and stained for lipids with oil-red O as described previously by Verschuren et al. (Arterioscler Thromb Vasc Biol. 2005; 25:161-167).” left out

Another data set concerns hepatic LDLR protein. The data set is described as follows: Hepatic LDLR protein levels (Western blot). The note with it: alone or + atorvastatin 3.6 mg/kg/d, 18 weeks. The class given is in vivo, mouse. The method, then:
Liver tissues were homogenized in lysis buffer (50 mM Tris-HCL [pH=7.4], 150 mM NaCl, 0.25% deoxycholic acid, 1% NP-40 [Igepal], 1 mM EDTA, protease inhibitor cocktail [complete, Roche], 1 mM PMSF, 1 mM Na3VO4) and then centrifuged at 6500 rpm at 4° C. for 30 minutes. Protein concentration in cell lysates was determined by bicinchonic acid protein assay (Thermo Scientific) according to manufacturer's instructions. 50 μg of protein lysates was separated by SDS-PAGE and then transferred to polyvinylidene fluoride membranes (Millipore). Blots were subjected to goat anti-mouse LDLR from R&D Systems and rabbit anti-goat horseradish peroxidase (HRP) from AbD Serotec or mouse anti-α-Tubulin from Sigma and horse anti-mouse HRP from Cell Signaling Technologies (according to the manufacturer's instructions); blots were developed with West Femto Super Signal ECL (Thermo Scientific) and subjected to the Chemi-Doc-it imaging system. Intensities of protein bands were quantified using Image J software.
(A western blot detects proteins with antibodies after separation by electrophoresis.)

Setting [6] is: 10 mg/kg MAb316P and/or atorvastatin, after 8 weeks of treatment, mean ± SD.
Where [7] appears, read: mAb316P 3 mg/kg weekly s.c., 18 weeks.
The mark [8] stands for this setting: mAb316P 10 mg/kg weekly s.c., 18 weeks.
[9] abbreviates: mAb316P 10 mg/kg, alone or + atorvastatin, 8 weeks.
The mark [10] stands for this setting: mAb316P 3 mg/kg weekly s.c., alone or + atorvastatin 3.6 mg/kg/d.
The mark [11] stands for this setting: mAb316P 10 mg/kg weekly s.c., alone or + atorvastatin 3.6 mg/kg/d.

Turning to `CC(C)c1c(C(=O)Nc2ccccc2)c(-c2ccccc2)c(-c2ccc(F)cc2)n1CC[C@@H](O)C[C@@H](O)CC(=O)O` [atorvastatin, reference compound], in the data set with APOE*3Leiden.CETP mice [1], the “TC reductions in lipoprotein profile (FPLC)” value was “confined to apoB-containing lipoproteins”. The “liver weight, change compared to the control group” value in the data set with APOE*3Leiden.CETP mice [2] is −15%. Further, in the data set with APOE*3Leiden.CETP mice [3] (setting [6]), the B-cells was 69.5 ± 17.4 % of PBMC population, the “CD11b+ Ly6C^hi” value is on record as 51.2 ± 6.4 % of monocytes, the “CD11b+ Ly6C^low” value is reported as 47.8 ± 6.3 % of monocytes and the Lymphocytes/Monocytes is 94.9 ± 1.6 % of PBMC population. In addition, in the data set with APOE*3Leiden.CETP mice [3] (setting [6]), the Monocytes was 5.3 ± 2.4 % of PBMC population, the Neutrophils/Granulocytes was 5.1 ± 1.6 % of PBMC population and the T-cells is listed as 17.0 ± 4.8 % of PBMC population. In addition, in the data set on APOE*3Leiden.CETP mice [4], the “lesion severity (severe type IV-V lesions) compared with the control” value is given as “reduced severity to a lesser extent” and the “lesion-free sections / undiseased segments compared with the control” value is on record as “no effect”. Also, in the data set on APOE*3Leiden.CETP mice [4] (atorvastatin 3.6 mg/kg/d alone), the “atherosclerotic lesion size (aortic root), change compared to the control” value is recorded as −35% and the “effect on the number of lesions” value is “no effect”.

As to “mAb316P: human anti-PCSK9 antibody; HCVR SEQ ID NO:1, LCVR SEQ ID NO:6”, in the data set with APOE*3Leiden.CETP mice [1] (alone, or both with atorvastatin 3.6 mg/kg/d, 18 weeks), the “TC, 3 mg mAb316P versus 10 mg mAb316P (dose dependence)” value is listed as −14%. The “TC reductions in lipoprotein profile (FPLC)” value in the data set on APOE*3Leiden.CETP mice [1] is “confined to apoB-containing lipoproteins”. In the data set with APOE*3Leiden.CETP mice [1] (setting [7]), the “average plasma TC, change compared to control” value is reported as −37% and the “average plasma TG, change compared to control” value is −33%. In addition, in the data set on APOE*3Leiden.CETP mice [1] (setting [8]), the “average plasma TC, change compared to control” value is on record as −46% and the “average plasma TG, change compared to control” value was −39%. Besides, the “total plaque area in the aortic arch, change vs control” value in the data set on APOE*3Leiden.CETP mice [5] is given as −67%. Moreover, in the data set on APOE*3Leiden.CETP mice [3] (setting [6]), the B-cells is given as 66.3 ± 15.0 % of PBMC population, the “CD11b+ Ly6C^hi” value is 57.5 ± 8.4 % of monocytes, the “CD11b+ Ly6C^low” value is 40.0 ± 8.0 % of monocytes and the Lymphocytes/Monocytes is recorded as 92.9 ± 2.0 % of PBMC population. In the data set with APOE*3Leiden.CETP mice [3] (setting [6]), the Monocytes is reported as 8.9 ± 2.5 % of PBMC population and the Neutrophils/Granulocytes is 7.1 ± 2.0 % of PBMC population. Moreover, in the data set on APOE*3Leiden.CETP mice [3] (setting [9]), the “anti-inflammatory Ly6C^low monocytes, change vs control” value is listed as “+12%”; the “granulocytes/neutrophils (as % of PBMC population), change vs control” value is −20%; the “monocytes (as % of PBMC population), change vs control” value was −28%; the “pro-inflammatory Ly6C^hi monocytes, change vs control” value is −8%. Also, in the data set with hepatic LDLR protein (mAb316P 3 mg/kg weekly s.c.), the “Hepatic LDLR protein levels, change vs control” value is “+80%”. Further, the “Hepatic LDLR protein levels, change vs control” value in the data set on hepatic LDLR protein (mAb316P 10 mg/kg weekly s.c.) is reported as “+133%”. Further, in the data set with APOE*3Leiden.CETP mice [4], the “lesion severity (severe type IV-V lesions) compared with the control” value was “fewer severe (type IV-V) lesions” and the “lesion-free sections / undiseased segments compared with the control” value is “more lesion-free sections”. Moreover, in the data set with APOE*3Leiden.CETP mice [4] (setting [10]), the “atherosclerotic lesion size (aortic root), change compared to the control” value is given as −71% and the “number of lesions per cross-section, change compared to the control” value is −17%. In addition, in the data set on APOE*3Leiden.CETP mice [4] (setting [11]), the “atherosclerotic lesion size (aortic root), change compared to the control” value is reported as −88% and the “number of lesions per cross-section, change compared to the control” value is listed as −30%.

For the origin of these results see patent US10995150B2, “Methods for inhibiting atherosclerosis by administering an anti-PCSK9 antibody” (REGENERON PHARMACEUTICALS, INC., priority 2013, dated 2021).
